Test results from patent US20150038430A1, “THERAPEUTIC PEPTIDOMIMETIC MACROCYCLES” (AILERON Therapeutics, Inc., priority 2008, published 2015).
Numbered stars: 1 amine (or outer) side, 2 acyl side, 3 side chain; on linkers, the order of the positions; unused ones are H or OH. Bridge positions count the residues as written; N and C are the ends. Square brackets hold non-standard residues; d marks the D form. Peptide text beside a SMILES is read from it. ξ: configuration not given here. ξαMeNle(6-ylidene) = CC(CCCC=[*:3])(N[*:1])C(=O)[*:2]; Nle = CCCC[C@H](N)C(=O)O

Columns and labels:
Format in all cases: cell-based, human
A375 = settings: 24 h
How it was run: (§1)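 EC50 values reflect 24 h exposure in Opti-MEM (serum-free, or 2% human serum) followed by CellTiter-Glo luminescence against DMSO-only controls.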

DHL-6 = settings: 24 h
How it was run: as §1

Jurkat = settings: 24 h
How it was run: as §1

MDA-MB231-Met = settings: 24 h
How it was run: as §1

MM1S = settings: 24 h
How it was run: as §1

Molt-4 = settings: 24 h
How it was run: as §1

NCI-H82 (SCLC-MCL1+) = settings: 24 h
How it was run: as §1

PC3 = settings: 24 h
How it was run: as §1

RS4;11 = settings: 24 h
How it was run: as §1

SEMK2 = settings: 24 h
How it was run: as §1

NCI-H220 = assay: MTT cell viability assay, NCI-H220; settings: 20 μM, MTT 48 hrs, FIG. 1
Protocol: (§2) Cell viability assays shown in FIGS. 1-32 were performed according to the following protocol. Tumor cell lines were grown in specific serum-supplemented media (growth media) as necessary. A day prior to the initiation of the study, cells were plated at optimal cell density (15,000 to 25,000 cells/well) in 200 μl growth media in microtiter plates. The next day, cells were washed twice in serum-free/phenol red-free RPMI complete media (assay buffer) and a final volume of 100 μl assay buffer was added to each well. Human peripheral blood lymphocytes (hPBLs) were isolated from Buffy coats (San Diego Blood Bank) using Ficoll-Paque gradient separation and plated on the day of the experiment at 25,000 cells/well.
(§3) Peptidomimetic macrocycles were diluted from 1 mM stocks (100% DMSO) in sterile water to prepare 400 μM working solutions. The peptidomimetic macrocycles and controls were then diluted 10 or […] or alternatively serially two-fold diluted in assay buffer in dosing plates to provide concentrations of either 40 and 20 μM or between 1.2 and 40 μM, respectively. […]
(§4) Towards the end of the 4 hour incubation time, 22 μl FBS was added to each well for a total concentration of 10% FBS. […] At the end of the incubation period, MTT assay was performed according to manufacturer's instructions (Sigma, catalog #M2128) and absorbance was measured at 560 nm using Dynex Opsys MR Plate reader. […]

NCI-H128 = assay: MTT cell viability assay, NCI-H128; settings: 20 μM, MTT 48 hrs, FIG. 1
Protocol: as §2, §3, §4

## CCCC[C@H](NC(=O)C1(C)CCCC=CCCCC(C)(NC(=O)[C@H](C)NC(=O)[C@H](CC(C)C)NC(=O)[C@H](Cc2c[nH]cn2)NC(=O)[C@H](CCCNC(=N)N)NC(=O)[C@H](C)NC(=O)[C@@H](NC(=O)[C@H](CC(N)=O)NC(=O)[C@H](CCCNC(=N)N)NC(=O)[C@@H](NC(=O)[C@@H](NC(=O)[C@H](CC(=O)O)NC(C)=O)[C@@H](C)CC)[C@@H](C)CC)[C@@H](C)CC)C(=O)N[C@@H](C(C)C)C(=O)NCC(=O)N[C@@H](CC(=O)O)C(=O)N1)C(=O)N[C@@H](CC(=O)O)C(=O)N[C@@H](CCCNC(=N)N)C(=O)N[C@@H](CO)C(=O)N[C@H](C(N)=O)[C@@H](C)CC (stereo partly drawn) [SP-1] (Ac-DIIRNIARHLA[ξαMeNle(6-ylidene)]VGD[ξαMeNle(6-ylidene)][Nle]DRSI-NH2; staple 12-16)
A375
  EC50: 11 µM
DHL-6
  EC50: 7 µM
Jurkat
  EC50: 2.5 µM
MDA-MB231-Met
  EC50: 9.8 µM
MM1S
  EC50: 3.5 µM
Molt-4
  EC50: 4.3 µM
NCI-H82 (SCLC-MCL1+)
  EC50: 2.5 µM
PC3
  EC50: 20 µM
RS4;11
  EC50: > 20 µM
SEMK2
  EC50: 10 µM
NCI-H220
  apoptosis of NCI-H220 (SCLC): induced apoptosis
NCI-H128
  apoptosis of NCI-H128 (SCLC): induced apoptosis
